TGI and GI50 data for 30 molecules are collected here from PubChem BioAssay (NCI).

Common to all, as to assay: DTP human tumour cell line panel, 48 h
The subject of assay [1] is NCI-H522 lung.
The test system of assay [2] is RXF 393 renal.
Assay [3] deals with SK-OV-3 ovarian.
The subject of assay [4] is CCRF-CEM leukemia.
The test system of assay [5] is SW-620 colon.
In assay [6] the test system is UO-31 renal.
Assay [7] concerns SN12C renal.
For assay [8], the system named is HCT-15 colon.
Assay [9] has as its system DU-145 prostate.

Values joined by “and” are separate entries in the source; they are usually repeats but may differ in a detail not shown here. Identical values can stand only once.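 96-well plates; 48 h exposure; 5 concentrations. Endpoints by linear interpolation between flanking doses. Not reached: highest tested concentration assigned. The concentration for 50% growth inhibition is given as GI50. At the TGI there is no net growth.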

As usually defined, the TGI is the concentration at which net growth stops. A higher TGI goes with lower sensitivity of the cells. Consider `CCOC(=O)c1c(C(F)(F)F)oc2c1ccc1nc3nonc3nc12`, for which the TGI in assay [1] was found to be 29.3 µM; in assay [2], 16.4 µM; in assay [3], 35.7 µM; in assay [4] it was 5.69 µM; in [5], 35.3 µM; in assay [6], 33.4 µM. The total growth inhibition concentration (TGI) in assay [7] is 31.7 µM; in assay [8], 32.6 µM.
Consider `O=C(/C=C/c1ccc(Cl)c(Cl)c1)C1CCC(Cl)CC1` (centres undefined), for which the TGI came to 32.9 µM in [1]; 37.9 µM in assay [2]; 33 µM in [3]; 31.7 µM in [5]; 33.9 µM in assay [6]; 32.7 µM in assay [7]. The molecule also returned a TGI in assay [8] of 35.1 µM.
For `CC(C)NC(=O)O/N=C1\CCC2[C@@H]3CC=C4C[C@@H](OC(=O)NC(C)C)CC[C@]4(C)C3CC[C@]12C` (some centres undefined), the TGI in [1] worked out at 3.4 µM; in assay [2], 3.54 µM; in [3], 13.5 µM; in assay [4], 5.03 µM; in assay [5], 3.72 µM; in [6], 2.3 µM. Besides, the TGI in assay [7] amounted to 3.14 µM; in assay [8] it was 3.08 µM.
In the case of `O=C1CCC(=O)C(C(=O)CCC(=O)Nc2cccc(Cl)c2)C1` (centres undefined), the TGI in assay [1], in assay [2], in [3], in [4], in assay [5] and in assay [6] was above 100 µM throughout. In addition, the TGI in assay [7] and in assay [8] was above 100 µM in each case.
`OC1C2C=CCC1CCC2` (centres undefined): the TGI in assay [1], in assay [2], in assay [3], in assay [4], in assay [5] and in assay [6] was above 100 µM each time. This molecule also gave a TGI in [7] above 100 µM.
Consider `COC(=O)C(=O)C1CCCCC(C2=NC3NN=C(N)N3C2=O)C1=O` (centres undefined), for which the TGI in assay [1], in assay [2], in assay [3], in assay [4], in assay [5] and in [6] was above 100 µM throughout. In addition, the TGI in [7] and in assay [8] was above 100 µM in each case.
Turning to `OC(c1ccccc1)c1c(-c2ccccc2)oc(-c2ccccc2)c1C(O)c1ccccc1` (centres undefined), the TGI in [1] amounted to 11.1 µM; in assay [2], 21.5 µM; in [3], 30.1 µM; in [4] it was 17.1 µM; in assay [5], 34.1 µM; in [6], 25 µM. Besides, the TGI amounted to 18.4 µM in assay [7], 28.3 µM in assay [9] and 36.8 µM in assay [8].
Take `O=C1C2Nc3ccccc3SC2C(=O)N1c1cccc([N+](=O)[O-])c1` (centres undefined): the TGI in [1], in assay [2], in [3], in assay [4], in assay [5] and in assay [6] was above 100 µM in each case. The TGI in assay [7] and in assay [8] was above 100 µM throughout.
In the case of `C=C1CC(C/C=C(\C)CC2CC(=C)C(=O)O2)OC1=O` (centres undefined), the TGI in [2], in assay [3], in [4], in [5], in assay [6] and in [7] was above 100 µM each time. Moreover, the TGI in assay [8] is above 100 µM.
`Cc1cccc(N=C2NC(=O)C(CC(=O)Nc3ccc(Cl)cc3C)S2)c1` (centres undefined): the TGI in assay [1], in assay [2], in assay [3], in assay [4], in assay [5] and in assay [6] was above 100 µM throughout. Moreover, the TGI in assay [7] and in assay [8] was above 100 µM each time.
For `CC(C)(C)C(=O)[CH-]C(=O)C(F)(F)C(F)(F)C(F)(F)F.CC(C)(C)C(=O)[CH-]C(=O)C(F)(F)C(F)(F)C(F)(F)F.[O-]CC1OC(O)C(O)C(O)C1O.[O-]CC1OC(O)C(O)C(O)C1O.[Ti+4]`, the TGI in assay [2], in assay [3], in [4], in assay [5], in assay [6] and in [7] was above 100 µM throughout. Further, the TGI in [8] is above 100 µM.
`O=c1[nH]c2c(O)cccc2c2cc3c(c(O)c12)OCO3`: the TGI is 63.4 µM in [1]; 84.7 µM in [3]; 64.3 µM in [4]; above 100 µM in assay [5]; 54.1 µM in assay [6]; 92.3 µM in [7]. For the same molecule, the concentration for total growth inhibition (TGI) in assay [8] is above 100 µM.
Take `Cc1cc(=O)[nH]c(CNC(=O)Cc2ccccc2)n1`: the TGI in assay [1], in [2], in assay [3], in assay [4], in assay [5] and in [6] was above 100 µM throughout. In addition, the TGI in assay [7] and in assay [8] was above 100 µM throughout.
Take `CCOc1ccc(NC(=O)CCC(=O)NN)cc1`: the TGI in assay [1], in [2], in [4], in [5], in [6] and in [7] was above 100 µM in each case. The TGI in assay [8] was above 100 µM.
As to `O=[N+]([O-])c1cc(/C=N/NS(=O)(=O)c2ccc(F)cc2)c(O)c([N+](=O)[O-])c1`, the TGI in [1] is 46.3 µM; in assay [2], 84.9 µM; in [3], 78.3 µM; in assay [4], above 100 µM; in assay [5], above 100 µM; in assay [6], above 100 µM. The TGI in assay [7] was above 100 µM; in assay [8], 67.4 µM.
Turning to `CC(C)(C)C[P+](C)(C)c1ccccc1`, the TGI in assay [2], in [3], in [4], in assay [5], in assay [6] and in assay [7] was above 100 µM each time. Further, the TGI in assay [8] was above 100 µM.
Consider `CCc1oc2ccc(OC)c3c2c1C=CC=C3`, for which the TGI in [1], in [2], in assay [3], in assay [4], in assay [5] and in [6] was above 100 µM each time. Further, the TGI in [7] and in [8] was above 100 µM in each case.
Usually GI50 stands for the concentration giving 50% growth inhibition. Regarding `COc1cccc(Nc2nccc(Nc3ccc4[nH]ncc4c3)n2)c1`, the GI50 in assay [1] was 1.48 µM; in assay [2], 1.06 µM; in assay [3] it was 2.31 µM; in assay [4] it was 0.901 µM; in assay [5] it was 2.41 µM; in assay [9] it was 1.3 µM. Moreover, the GI50 in [8] is 1.21 µM. Further, the TGI in assay [1] was 2.86 µM; in assay [2] it was 2.33 µM; in assay [3], 5.4 µM; in assay [4], 4.56 µM; in [5] it was 6.13 µM; in [9], 2.85 µM. The molecule also registered a TGI in assay [8] of 2.91 µM.
Take `CC(C)[O-].CC(C)[O-].[O-]c1cccc2cccnc12.[O-]c1cccc2cccnc12.[Ti+4]`: the GI50 in assay [1] is 1.41 µM and 1.93 µM; in [2] it was 2.42 µM; in [3], above 100 µM; in assay [4], 1.77 µM and 3.32 µM; in assay [5] it was 6.47 µM and 5.89 µM; in assay [6], above 100 µM. Besides, the GI50 in assay [8] was 4.79 µM and 8.05 µM. Also, the TGI was 2.84 µM and 5.68 µM in assay [1]; 6.04 µM in assay [2]; above 100 µM in assay [3]; above 100 µM in [4]; above 100 µM in assay [5]; above 100 µM in assay [6]. This molecule yielded a TGI in [8] above 100 µM.
Regarding `CP(C)C.[Ag][I]`, the TGI in assay [2], in [3], in [4], in assay [5], in assay [6] and in [7] was above 100 µM each time. The TGI in [8] is above 100 µM.
As to `CCOC(=O)CNC(=O)C(CSC(=O)N(C)O)NC(=O)CCC(N)C(=O)O` (centres undefined), the GI50 in assay [1], in assay [2], in [3], in assay [4], in assay [5] and in [6] was above 2000 µM each time. The GI50 in assay [7] and in assay [8] was above 2000 µM in each case. Besides, the TGI in assay [1], in assay [2], in assay [3], in assay [5], in [6] and in assay [7] was above 2000 µM each time. The TGI in [8] is above 2000 µM.
Turning to `N#C/C(=C\c1ccc(O)cc1O)C(N)=O`, the TGI in assay [1] is above 100 µM; in [2] it was 83.5 µM; in assay [3] it was above 100 µM; in [4], above 100 µM; in assay [5] it was above 100 µM; in assay [6], above 100 µM. The TGI in [7] and in assay [8] was above 100 µM in each case.
Consider `CCC[CH2][Sn]1([CH2]CCC)[O]C(=O)c2cc(C)ccc2[O]1`, for which the GI50 was 0.0859 µM in [1]; 0.283 µM in assay [2]; 1.58 µM in [3]; 0.167 µM in assay [4]; 0.211 µM in assay [5]; 1.19 µM in assay [6]. Further, the GI50 in [7] was 0.547 µM; in assay [8], 0.446 µM. The TGI in [1] worked out at 0.232 µM; in assay [2] it was 0.555 µM; in assay [3], 2.99 µM; in assay [4], 0.561 µM; in [5] it was 0.574 µM; in assay [6], 2.45 µM. In addition, the TGI in [7] amounted to 1.86 µM; in [8], 1.45 µM.
With `CO[C@@]12CC(=O)/C(=C(O)\C=C\c3ccccc3)C(=O)[C@]1(OC)Cc1ccccc1O2`, the TGI in assay [1] is 83.8 µM; in [2], 36.5 µM; in assay [3] it was above 100 µM; in [4], 84.6 µM; in assay [5] it was above 100 µM; in assay [6], above 100 µM. The TGI in assay [7] is above 100 µM; in [8], 51.7 µM.
In the case of `Nn1c(N=Nc2c(O)[nH]c3ccccc23)n[nH]c1=S`, the TGI was above 100 µM in assay [1]; 95.1 µM in [2]; above 100 µM in [3]; above 100 µM in assay [4]; above 100 µM in assay [5]; above 100 µM in assay [6]. The TGI in [7] and in assay [8] was above 100 µM throughout.
On to `CC12OC3CC(O1)C1(C=O)C4CCC5(C)C(c6ccc(=O)oc6)CCC5(O)C4CCC1(C3)O2` (centres undefined), for which the TGI in [1] was 0.317 µM; in assay [2] it was 0.256 µM; in assay [3], 0.513 µM; in [4] it was 1.2 µM; in assay [5], 1.27 µM; in assay [6], 0.97 µM. Also, the TGI in assay [8] turned out to be 0.648 µM.
Turning to `N#CC12Cc3ccc4c(c3-c3cccc(c31)CCN2C(=O)c1ccccc1)OCO4` (centres undefined), the TGI in [2], in [3], in assay [4], in [5], in [6] and in assay [7] was above 100 µM in each case. In [8], this molecule yielded a concentration for total growth inhibition (TGI) above 100 µM.
In the case of `CC1=NN(c2ccccc2)C(=O)C1N=Nc1ccc(Br)c(C)c1` (centres undefined), the TGI in assay [2], in [3], in assay [4], in assay [5], in [7] and in assay [8] was above 100 µM throughout.
`C[C@]12CCCC(=O)C1C[C@H](C(=O)O)CC2` (some centres undefined): the TGI in [1], in assay [3], in [4], in assay [5], in [6] and in assay [7] was above 100 µM each time. Moreover, in [8], the TGI is above 100 µM.
`NNC(=S)N/N=C/C(Cl)=C(\Cl)C(=O)O`: the TGI in assay [1], in [2], in assay [4], in assay [5], in [6] and in assay [7] was above 100 µM in each case. The TGI in assay [8] was above 100 µM.
